# In US20070032409A1, “Bradykinin receptor antagonists and uses thereof” (VANDERBILT UNIVERSITY, priority 2005, published 2007):
# Read-outs that look alike come from different tables or passages of the source.
# Columns and labels:
# [1] = system: pancreatitis-induced hypotension; details: dog, in vivo; cited from earlier work
# [2] = system: adult patients undergoing elective cardiac surgery requiring CPB; experiment: Safety: intra- and postoperative patient characteristics; type: in vivo, human; details: HOE 140 group N=8
# Protocol: Patients were transfused according to the following guidelines: packed red blood cells (PRBC) were transfused for a hematocrit less than 20% during CPB and for a hematocrit less than 25% after CPB, CPB time >120 min, or evidence of end-organ dysfunction. Platelets were transfused in 5-U sets for ongoing microvascular bleeding despite a normalized ACT. Fresh frozen plasma (FFP) was given for continued bleeding only after platelets were given. Transfusion requirements were recorded from the beginning of surgery until hospital discharge.
# [3] = system: plasminogen activator inhibitor -1 (PAI-1) antigen; experiment: PAI-1 antigen in arterial blood, 2-site ELISA; details: HOE 140 group N=8
# [4] = system: tissue-type plasminogen activator (t-PA) activity; experiment: t-PA activity in arterial blood, chromogenic substrate kit
# [5] = system: vasodilation in response to exogenous bradykinin; details: HOE 140 100 μg/kg; cited from earlier work
# t-PA antigen = t-PA antigen in arterial blood, 2-site ELISA
# rats = details: after i.v. bradykinin, endogenously-released kinins, induction of acute pancreatitis; cited from earlier work
# [6] = system: hypotensive transgenic mice that harbor the B2 receptor; details: mouse, in vivo; cited from earlier work
# [7] = system: adult patients undergoing elective cardiac surgery requiring CPB; experiment: Hemodynamic response (MAP, heart rate) to protamine infusion, double-blind randomized study; type: in vivo, human
# Protocol: The present inventors conducted a double-blind randomized study in sixteen adult male patients undergoing elective cardiac surgery requiring CPB and taking an angiotensin-converting enzyme inhibitor preoperatively. […] Mean arterial pressure (MAP) and tissue-type plasminogen activator (t-PA) activity were measured intraoperatively and before and after protamine.
# Sixteen adult patients undergoing elective cardiac surgery requiring CPB and taking an ACE inhibitor preoperatively were studied. Patients were excluded if they had evidence of coagulopathy (INR greater than 1.7), underwent emergency surgery, underwent redo-CABG, had taken a glycoprotein IIb/IIIa antagonist within 2 days of surgery or had renal insufficiency (baseline creatinine>1.5 mg/dl). All patients provided written informed consent.
# [8] = system: bradykinin-induced hypotension; details: correlated with antagonism of bradykinin-induced hypotension; cited from earlier work
# [9] = system: tissue factor and plasminogen activator inhibitor-1; details: cited from earlier work
# [10] = target: angiotensin-converting enzyme (ACE) (Homo sapiens, UniProt P12821); details: cited from earlier work
# Chain of angiotensin-converting enzyme (ACE) (P12821 30-1306, species assumed): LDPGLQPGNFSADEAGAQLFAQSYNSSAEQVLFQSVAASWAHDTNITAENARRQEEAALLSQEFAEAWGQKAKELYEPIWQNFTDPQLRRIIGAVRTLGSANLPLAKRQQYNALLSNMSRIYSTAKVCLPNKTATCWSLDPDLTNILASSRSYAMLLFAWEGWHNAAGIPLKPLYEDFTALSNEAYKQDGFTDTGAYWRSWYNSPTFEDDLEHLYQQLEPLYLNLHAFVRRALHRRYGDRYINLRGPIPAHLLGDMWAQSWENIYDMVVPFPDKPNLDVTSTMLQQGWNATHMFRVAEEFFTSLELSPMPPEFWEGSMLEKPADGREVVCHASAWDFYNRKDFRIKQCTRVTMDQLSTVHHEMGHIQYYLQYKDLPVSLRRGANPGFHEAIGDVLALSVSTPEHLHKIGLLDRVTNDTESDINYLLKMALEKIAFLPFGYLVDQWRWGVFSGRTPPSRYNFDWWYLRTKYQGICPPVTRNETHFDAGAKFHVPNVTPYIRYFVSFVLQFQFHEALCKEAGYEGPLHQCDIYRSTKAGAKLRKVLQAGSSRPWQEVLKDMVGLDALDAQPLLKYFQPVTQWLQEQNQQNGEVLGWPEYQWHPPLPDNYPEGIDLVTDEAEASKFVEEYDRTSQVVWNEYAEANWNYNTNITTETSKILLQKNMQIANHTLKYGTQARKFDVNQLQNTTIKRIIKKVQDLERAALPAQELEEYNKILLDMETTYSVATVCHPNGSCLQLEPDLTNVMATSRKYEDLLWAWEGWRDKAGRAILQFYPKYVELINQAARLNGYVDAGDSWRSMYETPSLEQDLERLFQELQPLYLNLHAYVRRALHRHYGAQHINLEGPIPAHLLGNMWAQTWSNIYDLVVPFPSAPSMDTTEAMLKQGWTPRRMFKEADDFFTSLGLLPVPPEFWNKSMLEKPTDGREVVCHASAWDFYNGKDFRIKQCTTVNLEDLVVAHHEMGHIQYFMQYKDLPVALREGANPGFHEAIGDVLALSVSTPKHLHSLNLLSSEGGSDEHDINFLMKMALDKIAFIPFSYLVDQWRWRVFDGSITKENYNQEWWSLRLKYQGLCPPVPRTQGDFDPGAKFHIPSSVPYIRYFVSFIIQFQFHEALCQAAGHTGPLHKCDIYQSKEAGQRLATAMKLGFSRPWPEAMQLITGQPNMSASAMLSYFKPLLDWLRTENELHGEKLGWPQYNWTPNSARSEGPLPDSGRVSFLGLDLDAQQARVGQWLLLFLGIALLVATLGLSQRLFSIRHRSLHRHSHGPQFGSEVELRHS
# [11] = target: neutral endopeptidase 24.11 (Homo sapiens, UniProt P08473); details: cited from earlier work
# Chain of neutral endopeptidase 24.11 (P08473 whole entry, species assumed): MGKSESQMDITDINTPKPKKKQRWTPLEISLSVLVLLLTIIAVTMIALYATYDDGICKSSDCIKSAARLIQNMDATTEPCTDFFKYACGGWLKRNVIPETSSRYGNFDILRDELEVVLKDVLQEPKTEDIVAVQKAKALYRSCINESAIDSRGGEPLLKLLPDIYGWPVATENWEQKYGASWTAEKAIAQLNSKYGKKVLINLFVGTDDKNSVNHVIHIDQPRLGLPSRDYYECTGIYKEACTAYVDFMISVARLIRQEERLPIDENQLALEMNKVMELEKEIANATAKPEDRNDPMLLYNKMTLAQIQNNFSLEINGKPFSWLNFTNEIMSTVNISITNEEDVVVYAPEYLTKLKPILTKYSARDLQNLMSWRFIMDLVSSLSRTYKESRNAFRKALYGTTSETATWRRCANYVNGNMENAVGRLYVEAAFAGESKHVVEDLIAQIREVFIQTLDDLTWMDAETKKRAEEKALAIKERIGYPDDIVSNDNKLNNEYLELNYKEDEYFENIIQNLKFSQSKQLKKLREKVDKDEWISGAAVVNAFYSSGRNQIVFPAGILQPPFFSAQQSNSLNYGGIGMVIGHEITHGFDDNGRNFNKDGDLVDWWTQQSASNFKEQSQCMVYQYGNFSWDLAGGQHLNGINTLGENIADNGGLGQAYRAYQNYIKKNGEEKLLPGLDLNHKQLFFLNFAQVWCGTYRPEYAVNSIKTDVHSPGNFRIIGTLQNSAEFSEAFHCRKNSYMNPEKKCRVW
# bradykinin = experiment: Arterial bradykinin concentrations before and after protamine, enzyme immunoassay; details: all patients; for bradykinin concentration after protamine: P=0.006
# [12] = cited from earlier work
# aminopeptidase M = aminopeptidase M (Homo sapiens, UniProt P15144); details: cited from earlier work
# Chain of aminopeptidase M (P15144 whole entry, species assumed): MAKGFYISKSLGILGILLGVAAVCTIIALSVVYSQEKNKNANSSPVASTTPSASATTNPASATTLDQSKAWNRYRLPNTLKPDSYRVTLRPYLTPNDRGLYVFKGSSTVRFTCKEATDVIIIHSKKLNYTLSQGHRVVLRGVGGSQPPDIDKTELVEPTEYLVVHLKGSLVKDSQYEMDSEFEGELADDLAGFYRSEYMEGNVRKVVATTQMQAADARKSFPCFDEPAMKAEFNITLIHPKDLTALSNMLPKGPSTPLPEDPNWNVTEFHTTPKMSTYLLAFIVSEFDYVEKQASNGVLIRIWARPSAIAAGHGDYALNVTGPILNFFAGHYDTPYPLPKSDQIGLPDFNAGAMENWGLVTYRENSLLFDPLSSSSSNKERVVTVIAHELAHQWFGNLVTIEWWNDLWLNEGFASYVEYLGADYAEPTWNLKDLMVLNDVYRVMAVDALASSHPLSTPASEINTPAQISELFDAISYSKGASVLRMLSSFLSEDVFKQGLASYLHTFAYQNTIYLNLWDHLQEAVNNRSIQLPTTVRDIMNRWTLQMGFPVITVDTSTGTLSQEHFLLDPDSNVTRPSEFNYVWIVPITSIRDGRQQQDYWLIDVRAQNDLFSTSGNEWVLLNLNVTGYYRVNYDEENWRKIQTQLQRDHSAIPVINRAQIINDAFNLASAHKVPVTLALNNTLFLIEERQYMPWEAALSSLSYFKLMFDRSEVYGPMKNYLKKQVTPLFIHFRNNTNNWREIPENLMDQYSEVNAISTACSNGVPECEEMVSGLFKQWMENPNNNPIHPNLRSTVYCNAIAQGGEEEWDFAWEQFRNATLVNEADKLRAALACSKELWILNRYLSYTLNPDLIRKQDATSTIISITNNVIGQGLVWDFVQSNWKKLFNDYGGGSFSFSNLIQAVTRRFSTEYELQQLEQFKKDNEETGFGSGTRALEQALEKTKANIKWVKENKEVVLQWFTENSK
# [13] = target: T1, carboxypeptidase N (kininase I) (Homo sapiens, UniProt P15169); details: cited from earlier work
# T1 sequence (P15169 21-458): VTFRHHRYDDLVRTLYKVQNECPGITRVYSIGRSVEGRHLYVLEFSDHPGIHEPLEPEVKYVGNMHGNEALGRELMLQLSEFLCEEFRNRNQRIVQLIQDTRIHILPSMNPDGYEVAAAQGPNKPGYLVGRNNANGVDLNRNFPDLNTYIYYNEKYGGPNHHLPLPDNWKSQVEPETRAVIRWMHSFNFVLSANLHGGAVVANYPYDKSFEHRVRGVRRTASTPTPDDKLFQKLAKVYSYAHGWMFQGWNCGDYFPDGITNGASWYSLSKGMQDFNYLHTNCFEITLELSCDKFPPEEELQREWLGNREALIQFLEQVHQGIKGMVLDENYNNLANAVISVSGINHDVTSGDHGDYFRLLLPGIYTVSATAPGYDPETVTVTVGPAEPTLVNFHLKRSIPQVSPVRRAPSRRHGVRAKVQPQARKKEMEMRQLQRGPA
# T1 sequence (P22792 22-545 partner): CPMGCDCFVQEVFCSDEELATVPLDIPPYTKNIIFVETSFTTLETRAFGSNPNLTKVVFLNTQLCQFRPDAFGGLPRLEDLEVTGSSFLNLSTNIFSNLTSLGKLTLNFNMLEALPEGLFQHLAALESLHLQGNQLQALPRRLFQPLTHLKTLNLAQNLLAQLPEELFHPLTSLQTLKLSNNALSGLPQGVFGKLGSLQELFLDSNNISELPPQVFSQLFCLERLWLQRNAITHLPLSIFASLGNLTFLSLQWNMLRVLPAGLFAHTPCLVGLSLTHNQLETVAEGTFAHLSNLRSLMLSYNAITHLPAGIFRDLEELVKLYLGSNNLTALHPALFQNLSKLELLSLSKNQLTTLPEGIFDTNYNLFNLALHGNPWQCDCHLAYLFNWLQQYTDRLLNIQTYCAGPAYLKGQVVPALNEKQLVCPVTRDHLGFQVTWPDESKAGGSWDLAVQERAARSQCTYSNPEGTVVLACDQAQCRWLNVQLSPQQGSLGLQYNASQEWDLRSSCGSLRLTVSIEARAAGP
# [14] = HOE 140 group N=8, mean±SD, in beats/min (unit assumed)
# [15] = protamine 250 mg over 8 min after CPB
compound,measurement,setting,value
NC(N)=NCCC[C@@H](N)C(=O)N[C@@H](CCCN=C(N)N)C(=O)N1CCC[C@H]1C(=O)N1C[C@H](O)C[C@H]1C(=O)NCC(=O)N[C@@H](Cc1cccs1)C(=O)N[C@@H](CO)C(=O)N1Cc2ccccc2C[C@@H]1C(=O)N1[C@H](C(=O)N[C@@H](CCCN=C(N)N)C(=O)O)C[C@@H]2CCCC[C@@H]21 [HOE 140],effect on pancreatitis-induced hypotension,[1],improvement of the hypotension in some animals
same,effect on release of bradykinin and beta-endorphin,[1],inhibited
same,CT 4 hours (chest tube output),[2],299.4 ± 233.0 mL
same,CT 24 hours (chest tube output),[2],759.6 ± 276.4 mL
same,Fresh frozen plasma transfusion,[2],0.4 ± 1.1 Units
same,New onset atrial fibrillation,[2],1(12.5) N(%)
same,PRBC transfusion,[2],4.4 ± 4.0 Units
same,Platelet transfusion,[2],275 ± 177 mL
same,Time to extubation >10 hours,[2],2(25) N(%)
same,PAI-1 antigen after protamine administration,[3],27.4 ± 15.5 ng/mL
same,PAI-1 antigen before protamine administration,[3],20.2 ± 17.1 ng/mL
same,PAI-1 antigen on postoperative day 1,[3],32.4 ± 10.1 ng/mL
same,"t-PA activity, intraoperative","[4]; 60 min after initiation of CPB, prior to receiving HOE 140, N=8",3.59±0.88 IU/ml
same,"t-PA activity, pre-protamine","[4]; after HOE 140 administration (100 μg/kg i.v.), before protamine, N=8",1.67±1.18 IU/ml
same,"t-PA activity, post-protamine","[4]; after protamine infusion in HOE 140 group, N=8",0.77±0.74 IU/ml
same,"t-PA activity, baseline","[4]; before initiation of CPB, prior to HOE 140, N=8",0.42±0.29 IU/ml
same,change in t-PA activity,"[4]; during HOE 140 administration, P=0.036 compared to saline",−1.92±0.94 IU/ml
same,effect on vasodilation in response to exogenous bradykinin,[5],prevents vasodilation
same,t-PA antigen after protamine administration,t-PA antigen; HOE 140 group N=8,22.7 ± 9.1 ng/mL
same,"t-PA antigen after study drug infusion, before protamine",t-PA antigen; HOE 140 group N=8,20.1 ± 6.1 ng/mL
same,t-PA antigen before study drug infusion,"t-PA antigen; HOE 140 group, intraoperative, N=8",23.4 ± 12.6 ng/mL
same,effect on decreases in blood pressure,rats,blocks
same,effect on blood pressure,[6],restoring blood pressure to normal levels
same,MAP during protamine infusion (nadir),"[7]; HOE 140 100 μg/kg i.v. before protamine, N=8, mean±SD",69.6±3.4 mmHg
same,MAP at the start of the protamine infusion (pre-protamine),"[7]; HOE 140 100 μg/kg i.v. over one-half hour at end of CPB before protamine, N=8, mean±SD",74.3±10.6 mmHg
same,heart rate after protamine,[7]; [14],81.0±14.0
same,heart rate prior to protamine,[7]; [14],91.4±9.5
same,effect on decrease in MAP during protamine infusion,"[7]; P=0.022, ANOVA, versus saline",significantly blunted
same,reduction of mean arterial pressure by protamine,[7]; in the presence of HOE 140,about 6%
same,effect on blood pressure,[8],increased blood pressure
same,effect on bradykinin-increased expression of tissue factor and PAI-1,[9],suppressed
Protamine: highly basic polycationic polypeptide given at the end of CPB to reverse the anticoagulation effects of heparin (SEQ ID NO:1) (MARYRCCRSQSRSRYYRQRQRSRRRRRRSCQTRRRAMRCCRPRYRPRCRRH),inhibition of angiotensin-converting enzyme (ACE),[10],does not inhibit
same,inhibition of neutral endopeptidase 24.11,[11],does not inhibit
same,bradykinin concentration before protamine,bradykinin,6.3±4.3 finol/ml
same,bradykinin concentration after protamine,bradykinin,12.2±9.8 finol/ml
same,bradykinin concentration before protamine,bradykinin; [15],6.3 ± 4.3 fmol/mL
same,bradykinin concentration after protamine,bradykinin; [15],12.2 ± 9.8 fmol/mL
same,time to neutralization of heparin,[12]; after i.v. administration,≤ 5 min
same,heparin activity neutralized per mg of protamine sulfate,[12]; heparin derived from intestinal mucosa,about 115 USP units
same,heparin activity neutralized per mg of protamine sulfate,[12]; heparin derived from lung tissue,approximately 90 USP units
same,inhibition of aminopeptidase M,aminopeptidase M,does not inhibit
same,inhibition of carboxypeptidase N (kininase I),[13],inhibits
